{"source": "patent US20260209218A1", "about": "“3-PHENYLQUINAZOLINONES AS NOVEL ANTI-CANCER THERAPY” (HELMHOLTZ ZENTRUM MÜNCHEN - DEUTSCHES FORSCHUNGSZENTRUM FÜR …, priority 2022, published 2026)", "origin": "cited, not measured here", "tested_on": "ferroptosis-resistant tumor cells", "settings": "background statement, references 16-18; cited from earlier work", "data": [{"smiles": "Cc1ccc(-c2c(C#N)c(N)n3c(nc4ccccc43)c2C#N)cc1", "note": "[iFSP1, 1-amino-3-(4-methylphenyl)-pyrido[1,2-a]benzimidazole-2,4-dicarbonitrile]", "values": [{"measurement": "sensitisation towards ferroptosis", "value": "efficiently sensitizes ferroptosis-resistant tumor cells towards ferroptosis"}]}]}
